What was measured:
Experiment in all cases: combination Emax (second highest fraction inhibited in the dose matrix, 72 h); higher = more inhibition; extreme values may be limits of the assay
[1] = tested on: CL-11 (Colorectal Carcinoma)
Procedure, shortened: (§1)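 After 24 hours at 37°C and 5% CO2 in 1536-well plates, cells in DMEM/F12 or RPMI plus 10% FBS received two-drug dose matrices for 72 hours. Viability came from CellTiter-Glo 2.0 luminescence and was scaled as inhibition, anchored at 0 by vehicle wells and at 1 by blank wells. Combination Emax is taken as the second-highest inhibition in the matrix, and Bliss excess as the observed combination effect less EA + EB − EA·EB, with EA and EB the single-agent effects.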

[2] = tested on: MDA-MB-415 (Breast Carcinoma)
Procedure, shortened: as §1

[3] = tested on: MOLT-13 (T-Lymphoblastic Leukemia)
Procedure, shortened: as §1

[4] = tested on: MONO-MAC-6 (Acute Myeloid Leukemia)
Procedure, shortened: as §1

[5] = tested on: NB1 (Neuroblastoma)
Procedure, shortened: as §1

[6] = tested on: NCI-H1876 (Small Cell Lung Carcinoma)
Procedure, shortened: as §1

[7] = tested on: NCI-H1963 (Small Cell Lung Carcinoma)
Procedure, shortened: as §1

[8] = tested on: NCI-H596 (Other Solid Carcinomas)
Procedure, shortened: as §1

[9] = tested on: P32-ISH (Burkitt's Lymphoma)
Procedure, shortened: as §1

[10] = tested on: PA-TU-8988T (Pancreatic Carcinoma)
Procedure, shortened: as §1

[11] = tested on: RCC-JW (Kidney Carcinoma)
Procedure, shortened: as §1

[12] = tested on: Raji (Burkitt's Lymphoma)
Procedure, shortened: as §1

[13] = tested on: SKG-IIIa (Cervical Carcinoma)
Procedure, shortened: as §1

[14] = tested on: SNU-407 (Colorectal Carcinoma)
Procedure, shortened: as §1

[15] = tested on: SNU-423 (Hepatocellular Carcinoma)
Procedure, shortened: as §1

[16] = tested on: SUP-M2 (T-Cell Non-Hodgkin's Lymphoma)
Procedure, shortened: as §1

[17] = tested on: T84 (Colorectal Carcinoma)
Procedure, shortened: as §1

[18] = tested on: TUR (Acute Myeloid Leukemia)
Procedure, shortened: as §1

[19] = tested on: WM35 (Melanoma)
Procedure, shortened: as §1

Compound	combination Emax [1]	combination Emax [2]	combination Emax [3]	combination Emax [4]	combination Emax [5]	combination Emax [6]	combination Emax [7]	combination Emax [8]	combination Emax [9]	combination Emax [10]	combination Emax [11]	combination Emax [12]	combination Emax [13]	combination Emax [14]	combination Emax [15]	combination Emax [16]	combination Emax [17]	combination Emax [18]	combination Emax [19]
Cn1cnc2c(F)c(Nc3ccc(Br)cc3Cl)c(C(=O)NOCCO)cc21 [Selumetinib] + CC(C)n1c(=O)n(C)c2cnc3cc(F)c(-c4ccc(OCCCN5CCCCC5)nc4)cc3c21 [AZD1390] (first compound max 10 µM, 7x7, partner max 0.3 µM)	0.691	0.222	0.456	0.231	0.127	0.272	0.303	0.21	0.101	0.321	0.0923	0.233	0.2	0.507	0.275	0.168	0.397	0.272	0.65
CS(=O)(=O)CCNCc1ccc(-c2ccc3ncnc(Nc4ccc(OCc5cccc(F)c5)c(Cl)c4)c3c2)o1 [Lapatinib] + C[C@@H](Oc1cc(-c2cnn(C3CCNCC3)c2)cnc1N)c1c(Cl)ccc(F)c1Cl [Crizotinib] (first compound max 10 µM, 7x7, partner max 10 µM)	0.928	0.633	0.853	0.951	0.965	0.934	0.966	0.902	1	0.64	0.976	0.76	0.733	0.966	0.952	1	0.856	0.59	0.88
COc1nnc2ccc(N3CCC(c4ccc(OCCN5CCN(C)C(=O)[C@H]5C)cc4)CC3)nn12 [AZD5153] + C[C@@H]1COCCN1C2=NC(=NC(=C2)C3(CC3)[S@](=N)(=O)C)C4=C5C=CNC5=NC=C4 [AZD6738] (first compound max 1 µM, 7x7, partner max 10 µM)	0.833	0.597	1	1	0.744	0.887	0.91	0.79	0.957	0.778	0.527	0.875	0.537	0.958	0.517	1	0.583	0.984	0.731
Cn1cnc2c(F)c(Nc3ccc(Br)cc3Cl)c(C(=O)NOCCO)cc21 [Selumetinib] + C[C@@H]1COCCN1C2=NC(=NC(=C2)C3(CC3)[S@](=N)(=O)C)C4=C5C=CNC5=NC=C4 [AZD6738] (first compound max 10 µM, 7x7, partner max 10 µM)	0.873	0.458	1	0.931	0.783	0.895	0.855	0.36	0.918	0.466	0.386	0.722	0.214	0.758	0.285	1	0.667	0.934	0.767
C[C@@H](c1ccc2nccn2c1)n1nnc2ncc(-c3cnn(C)c3)nc21 [Savolitinib] + Cc1c2c(nn1C)CSCc1cc(n(C)n1)CSc1cc(c3ccccc3c1)OCCCc1c(C(=O)O)n(C)c3c-2c(Cl)ccc13 [AZD5991] (first compound max 1 µM, 7x7, partner max 1 µM)	0.132	0.344	0.99	0.997	0.175	0.32	0.192	0.197	1	0.243	0.106	0.751	0.176	0.666	0.2	1	0.103	0.347	0.154
NC1(C(=O)N[C@@H](CCO)c2ccc(Cl)cc2)CCN(c2ncnc3[nH]ccc23)CC1 [Capivasertib] + Cn1cnc2c(F)c(Nc3ccc(Br)cc3Cl)c(C(=O)NOCCO)cc21 [Selumetinib] (first compound max 10 µM, 7x7, partner max 10 µM)	0.8	0.85	0.555	0.847	0.776	0.239	0.492	0.575	0.489	0.689	0.369	0.192	0.435	0.767	0.491	0.507	0.539	0.924	0.782
NC1(C(=O)N[C@@H](CCO)c2ccc(Cl)cc2)CCN(c2ncnc3[nH]ccc23)CC1 [Capivasertib] + CCN(CCO)CCCOc1ccc2c(Nc3cc(CC(=O)Nc4cccc(F)c4)[nH]n3)ncnc2c1 [AZD2811] (first compound max 10 µM, 7x7, partner max 1 µM)	0.272	0.837	0.992	0.817	0.79	0.941	0.93	0.564	0.951	0.546	0.358	0.293	0.374	0.714	0.571	0.992	0.389	0.912	0.328
COc1nnc2ccc(N3CCC(c4ccc(OCCN5CCN(C)C(=O)[C@H]5C)cc4)CC3)nn12 [AZD5153] + Cn1cnc2c(F)c(Nc3ccc(Br)cc3Cl)c(C(=O)NOCCO)cc21 [Selumetinib] (first compound max 1 µM, 7x7, partner max 10 µM)	0.967	0.429	0.979	0.986	0.445	0.23	0.757	0.725	0.65	0.778	0.3	0.535	0.537	0.938	0.424	1	0.483	0.744	0.968
CC(=O)c1c(C)c2cnc(Nc3ccc(N4CCNCC4)cn3)nc2n(C2CCCC2)c1=O [Palbociclib] + Cc1c2c(nn1C)CSCc1cc(n(C)n1)CSc1cc(c3ccccc3c1)OCCCc1c(C(=O)O)n(C)c3c-2c(Cl)ccc13 [AZD5991] (first compound max 10 µM, 7x7, partner max 1 µM)	0.309	0.444	1	1	0.529	0.534	0.534	0.349	1	0.229	0.255	0.704	0.146	0.621	0.315	1	0.119	0.621	0.208
CC(=O)c1c(C)c2cnc(Nc3ccc(N4CCNCC4)cn3)nc2n(C2CCCC2)c1=O [Palbociclib] + Cn1cnc2c(F)c(Nc3ccc(Br)cc3Cl)c(C(=O)NOCCO)cc21 [Selumetinib] (first compound max 10 µM, 7x7, partner max 10 µM)	0.864	0.254	0.721	0.669	0.376	0.312	0.456	0.306	0.699	0.514	0.239	0.453	0.188	0.654	0.241	0.88	0.33	0.379	0.718
Cn1cnc2c(F)c(Nc3ccc(Br)cc3Cl)c(C(=O)NOCCO)cc21 [Selumetinib] + C=CCn1c(=O)c2cnc(Nc3ccc(N4CCN(C)CC4)cc3)nc2n1-c1cccc(C(C)(C)O)n1 [AZD1775] (first compound max 10 µM, partner max 1 µM)	0.855	0.23	1	0.743	0.84	0.982	0.913	0.223	0.999	0.805	0.16	0.681	0.303	0.722	0.396	0.996	0.401	0.764	0.686
CC(=O)c1c(C)c2cnc(Nc3ccc(N4CCNCC4)cn3)nc2n(C2CCCC2)c1=O [Palbociclib] + CC1(C)CCC(CN2CCN(c3ccc(C(=O)NS(=O)(=O)c4ccc(NCC5CCOCC5)c([N+](=O)[O-])c4)c(Oc4cnc5[nH]ccc5c4)c3)CC2)=C(c2ccc(Cl)cc2)C1 [Venetoclax] (first compound max 10 µM, 7x7, partner max 1 µM)	0.298	0.155	0.709	0.823	0.345	0.224	0.922	0.134	0.66	0.141	0.215	0.436	0.0106	0.398	0.179	0.738	0.079	0.348	0.135
NC1(C(=O)N[C@@H](CCO)c2ccc(Cl)cc2)CCN(c2ncnc3[nH]ccc23)CC1 [Capivasertib] + C[C@@H]1COCCN1C2=NC(=NC(=C2)C3(CC3)[S@](=N)(=O)C)C4=C5C=CNC5=NC=C4 [AZD6738] (first compound max 10 µM, 7x7, partner max 10 µM)	0.718	0.846	0.957	0.917	0.853	0.934	0.885	0.575	0.927	0.625	0.635	0.724	0.5	0.82	0.586	1	0.68	0.962	0.311

— the supplement of paper PMC11061612
